This passage reports IC20, inhibition and Activity results from ChEMBL document CHEMBL4420071, “Method for treating skin with retinoids and retinoid boosters” (2013).

Bounds are passed on as bounds.

The species named for assay [1] is Homo sapiens.
Description: Inhibition of transglutaminase in human keratinocytes in presence of 10 uM retinal relative to retinal alone
Assay [2] addresses T1, Lecithin retinol acyltransferase (Bos taurus) (UniProt Q9BGL2).
T1 sequence (whole entry): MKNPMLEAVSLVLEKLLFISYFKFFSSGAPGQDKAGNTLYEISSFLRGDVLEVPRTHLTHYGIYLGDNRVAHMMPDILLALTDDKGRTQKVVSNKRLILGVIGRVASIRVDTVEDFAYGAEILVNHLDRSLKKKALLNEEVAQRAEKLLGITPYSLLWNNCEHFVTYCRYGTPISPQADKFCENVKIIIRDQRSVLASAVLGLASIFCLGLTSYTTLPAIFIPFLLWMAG
Description: Inhibition of LRAT in bovine RPE microsomes at 10 uM using retinol substrate in presence of Palmitoyl-CoA incubated for 5 mins by HPLC analysis relative to control.

Assay [3] deals with T2, Diacylglycerol O-acyltransferase 1 (Bos taurus) (UniProt Q8MK44).
T2 sequence (whole entry): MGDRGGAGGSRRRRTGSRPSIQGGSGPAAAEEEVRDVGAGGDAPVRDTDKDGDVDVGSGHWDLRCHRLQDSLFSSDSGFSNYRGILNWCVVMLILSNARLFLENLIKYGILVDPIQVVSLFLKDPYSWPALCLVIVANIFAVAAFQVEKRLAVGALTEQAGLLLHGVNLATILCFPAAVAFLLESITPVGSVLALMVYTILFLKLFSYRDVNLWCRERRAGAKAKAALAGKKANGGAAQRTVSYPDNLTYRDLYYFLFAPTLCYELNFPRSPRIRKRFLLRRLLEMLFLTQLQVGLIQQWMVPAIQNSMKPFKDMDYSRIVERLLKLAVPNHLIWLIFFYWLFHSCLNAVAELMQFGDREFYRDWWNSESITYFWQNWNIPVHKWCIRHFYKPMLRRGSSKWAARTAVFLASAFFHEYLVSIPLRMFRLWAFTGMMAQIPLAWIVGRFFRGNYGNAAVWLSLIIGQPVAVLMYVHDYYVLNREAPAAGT
Conditions: at 100 µM.
Description: Inhibition of ARAT in bovine RPE microsomes at 100 uM using retinol substrate in presence of dilauroyl-phosphatidyl choline incubated for 5 mins by HPLC analysis relative to control

Assay [4] concerns the target T1, Lecithin retinol acyltransferase (Bos taurus). Conditions: at 100 µM.
Description: Inhibition of LRAT in bovine RPE microsomes at 100 uM using retinol substrate in presence of Palmitoyl-CoA incubated for 5 mins by HPLC analysis relative to control
For assay [5], the target named is T2, Diacylglycerol O-acyltransferase 1 (Bos taurus). The assay is described as follows: Inhibition of ARAT in bovine RPE microsomes at 10 uM using retinol substrate in presence of dilauroyl-phosphatidyl choline incubated for 5 mins by HPLC analysis relative to control.
The species entered for assay [6] is Homo sapiens. Description: Inhibition of transglutaminase in human keratinocytes assessed as mean transglutaminase activity level at 1.65 10^-7M in presence of 10 uM retinal relative to retinal alone. Format: cell-based. Details: scale not given: the % may be the effect or the level left.
The species entered for assay [7] is Homo sapiens. The assay is described as follows: Inhibition of transglutaminase in human keratinocytes assessed as mean transglutaminase activity level at 4.1 10^-5M in presence of 10 uM retinal relative to retinal alone. Format: cell-based. Details: scale not given: the % may be the effect or the level left.
For assay [8], the species on record is Homo sapiens. The assay is described as follows: Inhibition of transglutaminase in human keratinocytes assessed as mean transglutaminase activity level at 5.0 10^-8M in presence of 10 uM retinal relative to retinal alone. Further details: scale not given: the % may be the effect or the level left. Format: cell-based.
The species entered for assay [9] is Homo sapiens. The assay is described as follows: Inhibition of transglutaminase in human keratinocytes assessed as mean transglutaminase activity level at 3.29 10^-7M in presence of 10 uM retinal relative to retinal alone. Format: cell-based. Further details: scale not given: the % may be the effect or the level left.
The target in assay [10] is T3, Cellular retinoic acid-binding protein 2 (Homo sapiens) (UniProt P29373).
T3 sequence (whole entry): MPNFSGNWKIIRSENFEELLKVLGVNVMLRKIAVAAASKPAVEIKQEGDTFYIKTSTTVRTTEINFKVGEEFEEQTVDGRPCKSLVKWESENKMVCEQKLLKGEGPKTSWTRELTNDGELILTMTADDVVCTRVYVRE
The assay is described as follows: Inhibition of radioactive all-trans retinoic acid binding to CRABP2 (unknown origin) expressed in Escherichia coli BLR(DE3)pLys incubated for 1 hr by scintillation counting assay. Conditions: concentration not given here.

For assay [11], the species on record is Homo sapiens. The assay is described as follows: Inhibition of transglutaminase in human keratinocytes assessed as mean transglutaminase activity level at 3.73 10^-4M in presence of 10 uM retinal relative to retinal alone. Further details: scale not given: the % may be the effect or the level left. Format: cell-based.
For assay [12], the species on record is Homo sapiens. The assay is described as follows: Inhibition of transglutaminase in human keratinocytes assessed as mean transglutaminase activity level at 1.23 10^-5M in presence of 10 uM retinal relative to retinal alone. Format: cell-based. Further details: scale not given: the % may be the effect or the level left.
The species named for assay [13] is Homo sapiens. The assay is described as follows: Inhibition of transglutaminase in human keratinocytes assessed as mean transglutaminase activity level at 1.0 10^-3M in presence of 10 uM retinal relative to retinal alone. Format: cell-based. Further details: scale not given: the % may be the effect or the level left.
The species named for assay [14] is Homo sapiens. The assay is described as follows: Inhibition of transglutaminase in human keratinocytes assessed as mean transglutaminase activity level at 1.1 10^-4M in presence of 10 uM retinal relative to retinal alone. Details: scale not given: the % may be the effect or the level left. Format: cell-based.

The molecule `CCCCCCCC/C=C\CCCCCCCC1=NCCN1CCO` registered an IC20 in the assay filed under Homo sapiens [1] of 5.65 ×10⁻⁶ M.
In the assay listed under Homo sapiens [1], `CCCCC/C=C\C/C=C\CCCCCCCC(=O)NCCO` yielded an IC20 of 1.48 ×10⁻⁵ M. Further, the inhibition (usually the share of the control response that was lost under treatment) in assay [2] was found to be 20%.
For the molecule `C/C=C/C(=O)C1=C(C)CC(C)(C)CC1`, the inhibition in assay [3] came to 80%.
In the assay listed under Homo sapiens [1], `CC(C)(O)CCCC1=CCC(C=O)CC1` (centres undefined) gave an IC20 of 4 ×10⁻⁵ M.
Take `CC1=CC[C@H](CC[C@H](C)CO)C1(C)C`: the inhibition in assay [3] was 70%; in assay [4] it was 75%.
The molecule `O=C1C[C@@H](c2ccc(O)cc2)Oc2cc(O)cc(O)c21` came in with an inhibition in assay [4] of 14%.
In the assay filed under Homo sapiens [1], `CC(/C=C/C=C(\C)C(=O)O)=C\C=C\C=C(C)\C=C\C=C(/C)C(=O)O` gave an IC20 of 2.52 ×10⁻⁵ M. Also, the inhibition in assay [2] worked out at 0%.
Regarding `CCCCCCCC/C=C\CCCCCCCC[N+](C)(C)CC(=O)[O-]`, the IC20 in the assay listed under Homo sapiens [1] is 1.08 ×10⁻⁵ M. The same molecule displayed an inhibition in assay [3] of 47%.
The molecule `CC(=O)/C(C)=C/C1C(C)=CCCC1(C)C` (centres undefined) displayed an inhibition in assay [4] of 38%.
Regarding `O=c1c(O)c(-c2ccc(O)c(O)c2)oc2cc(O)cc(O)c12`, in the assay listed under Homo sapiens [1], the IC20 worked out at 5.11 ×10⁻⁵ M.
For `C/C=C/C(=O)C1=C(C)CCCC1(C)C`, the inhibition in assay [5] turned out to be 45%.
For `CC(=O)C1(C)C2CC3C(C2)C31C` (centres undefined), the inhibition in [3] was found to be 23%; in assay [4], 12%.
The molecule `C[C@H]1[C@H](C)CC[C@]2(C(=O)O)CC[C@]3(C)C(=CC[C@@H]4[C@@]5(C)CC[C@H](O)C(C)(C)[C@@H]5CC[C@]43C)[C@H]12` registered an IC20 in the assay listed under Homo sapiens [1] of 5.94 ×10⁻⁷ M.
On to `CCCCCCCC/C=C/CCCCCCCC(=O)O`, for which the Activity worked out at 58% in the assay filed under Homo sapiens [6]; 58.2% in the assay filed under Homo sapiens [7]; 50.5% in the assay listed under Homo sapiens [8]; 69% in the assay filed under Homo sapiens [9]; 13.8% in the assay listed under Homo sapiens [11]; 80.9% in the assay listed under Homo sapiens [12]. Further, the Activity in the assay filed under Homo sapiens [13] worked out at 12.8%; in the assay listed under Homo sapiens [14], 8%. Moreover, the IC20 in the assay filed under Homo sapiens [1] was determined as 5.88 ×10⁻⁵ M. Also, the inhibition in assay [10] was greater than 50%.
Regarding `CCC=CCCC=CC=O`, the inhibition in [3] came out at 20%.
`CC(=O)/C=C/C=C(\C)CCC=C(C)C` gave an inhibition in [3] of 12%.
With `CCC(=O)C=CC1C(C)=CCCC1(C)C` (centres undefined), the inhibition in assay [3] was 67%; in assay [4] it was 77%.
As to `CCCCC/C=C\C/C=C\CCCCCCCC(=O)N(CCO)CCO`, the inhibition in assay [5] was found to be 12%; in [2], 11%; in assay [3], 43%; in [4], 51%.
Turning to `CC(C)=CCC/C(C)=C/CO`, in the assay listed under Homo sapiens [1], the IC20 worked out at 4.72 ×10⁻³ M.
For `CC(=O)N1CCN(c2ccc(OCC3COC(Cn4ccnc4)(c4ccc(Cl)cc4Cl)O3)cc2)CC1` (centres undefined), the IC20 in the assay filed under Homo sapiens [1] came out at 5.52 ×10⁻⁸ M.
In assay [4], `CC(=O)c1cc2c(cc1C)C(C)(C)C(C)CC2(C)C` (centres undefined) had an inhibition of 33%.
With `C/C=C\C(=O)C1C(C)=CCCC1(C)C` (centres undefined), the inhibition in assay [5] stood at 67%; in assay [2], 87%; in assay [3], 83%; in assay [4] it was 98%. This molecule gave an IC20 in the assay filed under Homo sapiens [1] of 1.69 ×10⁻⁴ M.
